Measurements as given in patent publication US8642510B2, “Inhibitors for brassinosteroid signalling” (GMI-Gregor Mendel-Institut fuer Molekulare Pflanzenbiologie …, priority 2008, dated 2014).
Entries after “also recorded” stand apart in the source; their conditions may differ.

Columns and labels:
cpd mutant seedlings = assay: Physiological test, phenotype rescue of brassinosteroid synthesis mutant cpd; format: in vivo, Arabidopsis thaliana; conditions: 30 μM in medium, 7 days
Procedure: (§1) FIG. 3: Effects on the phenotype of brassinosteroid mutants. 7-day-old seedlings of the brassinosteroid synthesis mutant cpd and signalling mutant bri1-1 were transferred to MS medium containing 1 μM epi-brassinolide (Epi-BL) or compounds 10 and 15 at a concentration of 30 μM and incubated for 7 days under long day conditions. All pictures were taken at the same magnification. The bar represents 1 mm.
(§2) Arabidopsis thaliana Co10 or bri1-1 seedlings were grown in vitro on ½ MS plates containing 1% sucrose in a growth camber under long day conditions (16 h light with 50 μE·m^−2·s^−1, 8 h dark) for 7 days. Subsequently, they were transferred to plates supplemented with inhibitors at different concentrations and effects on the phenotype were observed 7 days later.
(§3) Downregulation of ASK activity is crucial in brassinosteroid signalling. ASKs are constitutively active in cpd and bril-1 mutants, which are defective in brassinosteroid biosynthesis or signalling, respectively. This leads to severely dwarfed plants with dark green downward curled leaves and shortened hypocotyls. […] To screen for in vivo potency, cpd and bril-1 mutants were transferred to media containing 4-[(5-bromo-2-pyridinyl)amino]-4-oxobutanoic acid derivatives at a concentration of 30 μM. […] The potency to rescue the phenotype correlated with the results of the in vitro assay.

bri1-1 mutant seedlings = assay: Physiological test, phenotype rescue of brassinosteroid signalling mutant bri1-1; format: in vivo, Arabidopsis thaliana; conditions: 30 μM in medium, 7 days
Procedure: as §1, §2, §3

[1] = Cell-permeability assay (uptake by seedlings); format: in vivo, A. thaliana; conditions: 50 μM in medium
Procedure: FIG. 6: Methylation increases tissue-permeability. A. thaliana seedlings were incubated in 50 μM solutions of compounds 10 and 15 in ½MS medium. Samples were taken after the indicated time and the in situ levels of compound 15 analysed by HPLC. The solid line represents the results for plants incubated with compound 10 and the dashed line the results for compound 15. The means and standard deviations were calculated from 3 independent assays.
Two-week-old A. thaliana Co10 seedlings were transferred to ½MS medium containing 50 μM inhibitor. Samples were removed after the indicated time points, rinsed with water, dried with filter paper and frozen in liquid nitrogen. For analysis the plant material was ground to a fine powder in a mortar pre-cooled with liquid nitrogen. […]
The cell-permeability of a substance is an important characteristic influencing its in vivo potency. The uptake of compounds 10 and 15 by plants was determined by treatment of seedlings with solutions of these compounds and subsequent quantification of the internalised inhibitor concentrations (FIG. 6). Since compound 10 is rapidly converted to 15, only the in situ concentration of 15 was measured. […] While 50 μM were present in the medium, in situ concentrations of about 90 μM could be measured in the case of compound 15 and up to 190 μM in the case of application of compound 10.

COC(=O)CCC(=O)Nc1ccc(I)cn1 [Compound 10, 4-[(5-iodopyrid-2-yl)amino]-4-oxobutanoic acid methyl ester]
Rescue of cpd mutant phenotype (cpd mutant seedlings): highly active in vivo | Rescue of bri1-1 mutant phenotype (bri1-1 mutant seedlings): highly active in vivo | Uptake rate relative to compound 15 [1]: roughly double | Tissue permeability / uptake ([1]; result in words): higher tissue permeability; also recorded: very rapid uptake
